# Assays:
# [1] = tested on: pancreatic adenocarcinoma; assay: Retrospective study of tumor hENT1 expression (IHC, SP120) and overall survival in RTOG 9704 patients given adjuvant gemcitabine or 5FU; assay type: in vivo, human; parameters: Median OS in Gem hENT1-Low Patients / Median OS in Gem hENT1-High Patients: unit not given here; details: for median OS as hENT1 expression increases from No to Low to High: Method Five (percent negative staining), FIG. 18; for median OS as hENT1 expression increases from Negative to Weak to Moderate to Strong: Method Four (staining intensity), FIG. 30; for median OS as hENT1 expression (H-score subgroup) increases: Method One (H-score), FIG. 22; for OS across High, Mid and No hENT1 subgroups: Method Six with No hENT1 category (membranes resolvable at 10×), FIGS. 33-34; for OS of Low hENT1 subgroup compared to High hENT1 subgroup: Method Six; for median OS as hENT1 expression increases from Negative to Segmental to Diffuse: Method Three (staining pattern), FIG. 26; for OS of subgroup N, 20× or 40× compared to subgroup PP at 2×, 4× or 10×: Method Two (magnification), FIGS. 15-16; for HR (CI) for hENT1-Low vs -High in Gem Patients / HR for Gem vs 5-FU in hENT1-High Patients / HR for Gem vs 5-FU in hENT1-Low Patients: overall survival
# Description: Method One for determining a hENT1 endpoint is an H-score. The H-score is a continuous variable that takes into account both the percentage of cells that are positive for the antigen in question, as well as the intensity of staining with the relevant antibody (McCarty et al. (1986) Cancer Research (Supp) 46, 4244s-4248s). A scoring algorithm was used to capture the hENT1 expression results. […]
# Method Four for determining a hENT1 endpoint is based on highest percentage of hENT1 membrane staining intensity. The staining intensity for a tissue core is determined using the parameters described for the H-score (0, 1+, 2+, 3+). The percentage of each parameter represented by the tumor is determined. If a score of only 0 is obtained, the endpoint is considered Negative (N). For all other samples (e.g. those that contain scores with 0, 1+, 2+, and/or 3+), the endpoint is determined by the non-0 membrane intensity represented in the highest percentage (see FIG. 1). For example, if the sample is 50% 0, 20% 1+, 30% 2+ and 0% 3+, such sample would be referred to as 2+. If 2 intensities have the same percentage then the lower of the 2 intensities is used. A staining intensity score of 0 is referred to as Negative (N), a staining intensity score of 1+ is referred to as Weak (W), a staining intensity score of 2+ is referred to as Moderate (M), and a staining intensity score of 3+ is referred to as Strong (S). If there are multiple evaluations made on a patient, the maximum result (i.e., S>M>W) from the evaluations is used. There may be circumstances where if multiple evaluations are made on a patient, the minimum result from the evaluations is used. […]
# pancreatic cancer = details: Stage III/IV disease, gemcitabine monotherapy; cited from earlier work
# [2] = 50% tumor staining, Low group: >50% of tumor is negative
# [3] = Magnification (intensity), Low group: unequivocal membranes visible only at 20x, 40x or negative
# [4] = Magnification and % tumor staining, Low group: membranes visible only at 20x, 40x or negative OR >=50% of tumor is negative
# [5] = High = PP at 2×, 4× and/or 10× AND negative tumor tissue <=50%, FIGS. 7-8
# [6] = High = at least 50% of tumor displays membrane staining at 10× ocular, FIGS. 4-5
# [7] = staining variable H-score, Low group: H-score <50
smiles,measurement,setting,value
Nc1ccn([C@@H]2O[C@H](CO)[C@@H](O)C2(F)F)c(=O)n1 [gemcitabine],Median OS in Gem hENT1-High Patients,[1]; [2],19.6
same,Median OS in Gem hENT1-Low Patients,[1]; [2],14.2
same,Median OS in Gem hENT1-High Patients,[1]; [3],21.0
same,Median OS in Gem hENT1-Low Patients,[1]; [3],14.8
same,Median OS in Gem hENT1-High Patients,[1]; [4],24.2
same,Median OS in Gem hENT1-Low Patients,[1]; [4],14.8
same,median OS as hENT1 expression increases from No to Low to High,[1],increases
same,OS of No hENT1 subgroup compared to Low and High hENT1 subgroups,"[1]; Method Five, FIG. 19",exhibited shorter OS
same,OS of patients with observable hENT1 expression (Low and High combined) compared to no hENT1 expression,"[1]; Method Five, FIG. 20",exhibit longer OS
same,median OS as hENT1 expression increases from Negative to Weak to Moderate to Strong,[1],increases
same,"OS of negative hENT1 subgroup compared to Weak, Moderate or Strong subgroups","[1]; Method Four, FIG. 31",exhibited shorter OS
same,median OS as hENT1 expression (H-score subgroup) increases,[1],increases
same,OS of subgroup H-score<=20 compared to H-score between 20 and 80 and H-score>=80,"[1]; Method One, FIG. 23",exhibited shorter OS
same,OS of patients with H-score>=50 compared to H-score <50,"[1]; Method One, FIG. 24",exhibited longer OS
same,"OS across High, Mid and No hENT1 subgroups",[1],the subgroup with No hENT1 expression exhibited the shortest OS followed by the Mid hENT1 subgroup and the High hENT1 subgroup had the longest OS
same,OS of Low hENT1 subgroup compared to High hENT1 subgroup,[1]; [5],exhibited shorter OS
same,OS of Low hENT1 subgroup compared to High hENT1 subgroup,[1]; [6],exhibited shorter OS
same,median OS as hENT1 expression increases from Negative to Segmental to Diffuse,[1],increases
same,OS of negative hENT1 subgroup compared to Segmental or Diffuse subgroups,"[1]; Method Three, FIG. 27",exhibited shorter OS
same,OS of patients with detectable hENT1 expression (S or D) compared to no hENT1 expression,"[1]; Method Three, FIG. 28",exhibit longer OS
same,"OS of subgroup N, 20× or 40× compared to subgroup PP at 2×, 4× or 10×",[1],exhibited shorter OS
same,median overall survival of hENT1-high patients compared to hENT1-low patients,[1]; for each of the hENT1 cut-offs of Table 2,longer
same,HR (CI) for hENT1-Low vs -High in Gem Patients,[1]; [2],0.61
same,HR for Gem vs 5-FU in hENT1-High Patients,[1]; [2],0.84
same,HR for Gem vs 5-FU in hENT1-Low Patients,[1]; [2],1.37
same,HR (CI) for hENT1-Low vs -High in Gem Patients,[1]; [3],0.67
same,HR for Gem vs 5-FU in hENT1-High Patients,[1]; [3],0.87
same,HR (CI) for hENT1-Low vs -High in Gem Patients,[1]; [4],0.58
same,HR for Gem vs 5-FU in hENT1-High Patients,[1]; [4],0.77
same,HR (CI) for hENT1-Low vs -High in Gem Patients,[1]; [7],0.63
same,HR for Gem vs 5-FU in hENT1-High Patients,[1]; [7],0.86
same,HR for Gem vs 5-FU in hENT1-Low Patients,[1]; [7],1.35
same,Median OS in Gem hENT1-High Patients,[1]; [7],19.6
same,Median OS in Gem hENT1-Low Patients,[1]; [7],14.2
same,median OS,pancreatic cancer,5-7 months
"O=c1[nH]cc(F)c(=O)[nH]1 [5FU, 5-Fluorouracil]",median OS as hENT1 expression increases from No to Low to High,[1],do not demonstrate an improvement in OS with increasing hENT1 expression
same,median OS as hENT1 expression increases from Negative to Weak to Moderate to Strong,[1],do not demonstrate an improvement in OS with increasing hENT1 expression
same,median OS as hENT1 expression (H-score subgroup) increases,[1],do not demonstrate an improvement in OS with increasing hENT1 expression
same,"OS across High, Mid and No hENT1 subgroups",[1],"do not demonstrate improvement in OS between the High, Mid and No hENT1 subgroups"
same,OS of Low hENT1 subgroup compared to High hENT1 subgroup,[1]; [5],do not demonstrate improvement in OS between the High and Low subgroups
same,OS of Low hENT1 subgroup compared to High hENT1 subgroup,[1]; [6],do not demonstrate improvement in OS between the High and Low subgroups
same,median OS as hENT1 expression increases from Negative to Segmental to Diffuse,[1],do not demonstrate an improvement in OS with increasing hENT1 expression
same,"OS of subgroup N, 20× or 40× compared to subgroup PP at 2×, 4× or 10×",[1],do not demonstrate an improvement in OS

# Reference: patent publication US20130115628A1, “METHOD FOR SELECTION OF CHEMOTHERAPEUTIC AGENTS FOR ADENOCARCINOMA CANCER” (VENTANA MEDICAL SYSTEMS, INC., priority 2011, published 2013)
